These results are taken from patent US12344588B2, “Sulfonamide compounds and use thereof” (Taiho Pharmaceutical Co., Ltd., priority 2017, dated 2025).

What all share (format): physicochemical
Series [1] in a line: Hygroscopicity: moisture adsorption/desorption test. Particulars: relative humidity of 95%, 25° C. As for the experimental part: The moisture adsorption/desorption test was carried out according to the following conditions.
Approximately 10 to 15 mg of the sample was filled in a dedicated quartz holder, and the weight of each sample at each humidity was continuously measured and recorded under the following conditions.

The nature of series [2]: Stability test, optical purity by chiral HPLC. As to conditions: 40° C./75% RH (closed and open condition), 24 hours. The method, then:
The optical purity was also measured by the following HPLC condition • Detector: UV at 240 nm • Column: […] IE (4.6×250 mm, 5 μm)/Daicel corp. • Column temperature: 40° C. • Mobile phase: n-hexane/ethanol/ethanolamine/acetic acid (65:35:0.5:0.2) • Flow rate: 1.0 mL/min • Injection: 5 μL • Sample temperature: 5° C. • Time span of measurement: 40 min Limit of Quantitation (LOQ): • Compound—RR,RS,SS: 0.05%
The optical purity was measured also with added 0.2% optical isomer.
The solid stability of the exemplary sample of the present invention and the free form obtained above was tested before and after the sample was stored at 40° C./75% RH (closed and open condition) for 24 hours.

The next series is described as follows: Solubility test. Particulars: for solubility at 2 h: 37 °C, thermodynamic from solid; for Solubility: 2 hours. As for the experimental part: About 15 mg of the exemplary sample of the present invention was added to 1 mL of each solvent and was swelled at 37° C. for 2 hours under light resistant condition. After centrifugation, each supernatant was filtered, and 0.7 mL of a mixture of water and acetonitrile (1:1) was added to 0.1 mL of the filtrate.
Following of mobile phase: Control the gradient by mixing the mobile phase A and B as directed in the following table below • Flow rate: 1.0 mL per minutes • Time span of measurement: For 12 minutes after injection

Structures are written as SMILES. Values after ≈ are worked out from the molar mass of the structure shown.

For `Cc1ccc(F)c([C@@H](C)[C@H](NS(=O)(=O)c2ccc(Cl)cc2C(N)=O)c2n[nH]c(=O)o2)c1C` [Comparative Example, 5-chloro-2-(N-((1S,2R)-2-(6-fluoro-2,3-dimethylphenyl)-1-(5-oxo-4,5-dihydro-1,3,4-oxadiazol-2-yl)propyl)sulfamoyl)benzamide], in series [1] (listed as free form), the “hygroscopicity: mass change in moisture adsorption/desorption test” value is “about 3.8%”. In addition, in series [2], the “change in the optical purity after storage” value is on record as “No significant change”. Also, the solubility at 2 h was 250 µg/mL (≈ 518 µM) in “Solubility test” (50 mM acetate buffer, pH 4, aqueous buffer, Acetate buffer (50 mM, pH 4.0)); 190 µg/mL (≈ 393 µM) in “Solubility test” (0.5% HPMC, aqueous with cosolvent or surfactant or cyclodextrin); 230 µg/mL (≈ 476 µM) in the series “Solubility test” (First fluid for dissolution test, pH 1.2, simulated gastric fluid, pH 1.2, 37° C.); 800 µg/mL (≈ 1660 µM) in “Solubility test” (Second fluid for dissolution test, pH 6.8, aqueous buffer, pH 6.8, 37° C.); 230 µg/mL (≈ 476 µM) in “Solubility test” (water).

With `Cc1ccc(F)c([C@@H](C)[C@H](NS(=O)(=O)c2ccc(Cl)cc2C(N)=O)c2n[nH]c(=O)o2)c1C` [Exemplary Sample, 5-chloro-2-(N-((1S,2R)-2-(6-fluoro-2,3-dimethylphenyl)-1-(5-oxo-4,5-dihydro-1,3,4-oxadiazol-2-yl)propyl)sulfamoyl)benzamide], the “hygroscopicity: mass change in moisture adsorption/desorption test” value in series [1] (listed as obtained product) is “about 0.1%”. Moreover, the “change in the optical purity after storage” value in series [2] was “No significant change”. In addition, the Solubility in “Solubility test” (First fluid for dissolution test, pH 1.2, 37° C.) was 230 µg/mL (≈ 476 µM); in the series “Solubility test” (water, 37° C.), 230 µg/mL (≈ 476 µM).
